The results in this text go back to article PMC11280325, “Design, Synthesis, and Characterization of Novel Thiazolidine-2,4-Dione-Acridine Hybrids as Antitumor Agents” (Molecules, 2024).

One test deals with Bj-5ta. Briefly: MTT assay, BJ-5ta non-cancerous fibroblasts. Format: cell-based, human. Particulars: non-cancerous dermal fibroblasts, 48 h incubation. As for the experimental part:
The non-cancerous cell line MCF-10A (human epithelial breast cells) was cultured in a DMEM F12 medium supplemented with 10% FBS (Invitrogen, Carlsbad, CA, USA), 1× HyClone™ Antibiotic/Antimycotic Solution (GE Healthcare, Piscataway, NJ, USA), insulin, hEGF, and hydrocortisone. The BJ-5ta cells (human dermal fibroblasts) were cultured in a DMEM-M199 4:1 medium mixture, supplemented with 10% FBS and hygromycin B (0.01 mg/mL). The cells were maintained under standard conditions with an atmosphere containing 5% CO2 at 37 °C. Cell viability, estimated by trypan blue exclusion, was consistently greater than 95% before each experiment.
(§1) To evaluate the IC50 (half-maximal inhibitory concentration) and confirm the antiproliferative activity of the tested substances, we employed the colorimetric MTT assay (3-(4,5-dimethylthiazol-2-yl)-2,5-diphenyltetrazolium bromide) (Sigma-Aldrich Chemie, Steinheim, Germany). The cell lines were seeded in 96-well plates at a density of 5 × 10^3 to 10 × 10^3 cells per well. After 24 h, the tested substances, dissolved in the cultivation medium, were added to the cells at final concentrations of 5, 10, 20, and 50 µmol/L. The cells were then incubated for 48 h under standard cultivation conditions. Following the incubation period, MTT was added to each well. The MTT was metabolized by the cells into insoluble formazan crystals, which were subsequently dissolved by adding 100 µL of 10% SDS. After another 24 h, the absorbance was measured at a wavelength of 540 nm using the automated Cytation™ 3 Cell Imaging Multi-Mode Reader (Biotek, Winooski, VT, USA). The experiments were performed in at least three independent repetitions. IC50 values were calculated using a nonlinear regression method.
A general note: Tetrazolium dyes change colour on reduction, which living cells bring about.

For another test, the system named is A549. Kind of test: MTT assay, A549. Format: cell-based, human. Conditions: lung adenocarcinoma, 48 h incubation. The protocol:
(§2) The human cancer cell lines HeLa (cervical adenocarcinoma), HCT116 (colorectal adenocarcinoma), A2780 (human ovarian adenocarcinoma), A2780cis (human ovarian adenocarcinoma cisplatin-resistant), Jurkat (acute T-lymphoblastic leukemia), and Hep G2 (hepatocellular carcinoma) were cultured in an RPMI 1640 growth medium (Biosera, Kansas City, MO, USA). The cancer cell lines MDA-MB-231 (triple-negative breast adenocarcinoma), A2058 (human melanoma), U87 (human glioblastoma), PATU 8902 (pancreas adenocarcinoma), and A549 (human lung adenocarcinoma) were cultured in a DMEM medium (Biosera, Kansas City, MO, USA). The media were supplemented with 10% fetal bovine serum (FBS) (Invitrogen, Carlsbad, CA, USA) and 1× HyClone™ Antibiotic/Antimycotic Solution (GE Healthcare, Piscataway, NJ, USA).
as §1

Another test deals with Hep G2. Kind of test: MTT assay, Hep G2. It is filed as cell-based, human. Conditions: hepatocellular carcinoma, 48 h incubation. The protocol:
as §2, §1

The test system of a further test is HeLa. Kind of test: MTT assay, HeLa. It is filed as cell-based, human. Particulars: cervical adenocarcinoma, 48 h incubation. As for the experimental part: as §2, §1
The subject of a further test is HCT116. Kind of test: MTT assay, HCT116. It is filed as cell-based, human. Particulars: colorectal adenocarcinoma, 48 h incubation. The protocol: as §2, §1
The next test concerns PATU. Briefly: MTT assay, PATU 8902. Format: cell-based, human. Particulars: pancreas adenocarcinoma, 48 h incubation. As for the experimental part: as §2, §1
In another test the test system is A2058. Kind of test: MTT assay, A2058. Format: cell-based. Particulars: human melanoma, 48 h incubation. As for the experimental part:
as §2, §1

Where a name gives a salt, the structure may show the parent alone.

The IC50 is the concentration needed to halve the response being measured. The low end stands for inhibition by little substance, the high end for a need for much substance. For `O=C(COc1ccc(/C=C2\SC(=O)N(Cc3cccc4cc5ccccc5nc34)C2=O)cc1)Nc1ccccc1` [8a·HCl, 2-(4-{[(5Z)-3-[(Acridin-4-yl)methyl]-2,4-dioxo-1,3-thiazolidin-5-ylidene]methyl}phenoxy)-N-phenylacetamide hydrochloride], the 50% inhibitory concentration (IC50) with Bj-5ta is greater than 50 µM; in the test with A549, greater than 50 µM; with Hep G2, greater than 50 µM; in the test on HeLa, 42.6 ± 0.75 µM; with HCT116, greater than 50 µM; with PATU, greater than 50 µM. The compound further had a 50% inhibitory concentration (IC50) with A2058 greater than 50 µM.
Take `O=C(COc1ccc(/C=C2\SC(=O)N(Cc3cccc4cc5ccccc5nc34)C2=O)cc1)Nc1ccc([N+](=O)[O-])cc1` [8d·HCl, 2-(4-{[(5Z)-3-[(Acridin-4-yl)methyl]-2,4-dioxo-1,3-thiazolidin-5-ylidene]methyl}phenoxy)-N-(4-nitrophenyl)acetamide hydrochloride]: the 50% inhibitory concentration (IC50) in the test on Bj-5ta, with A549, in the test on Hep G2, in the test with HeLa, in the test with HCT116 and in the test on PATU was greater than 50 µM throughout. In the test with A2058, the IC50 is greater than 50 µM.
With `O=C(COc1ccc(/C=C2\SC(=O)N(Cc3cccc4cc5ccccc5nc34)C2=O)cc1)Nc1ccccc1C(F)(F)F` [8e·HCl, 2-(4-{[(5Z)-3-[(Acridin-4-yl)methyl]-2,4-dioxo-1,3-thiazolidin-5-ylidene]methyl}phenoxy)-N-[2-(trifluoromethyl)phenyl]acetamid hydrochloride], the IC50 in the test on Bj-5ta, in the test with A549, with Hep G2, in the test with HeLa, in the test with HCT116 and in the test on PATU was greater than 50 µM throughout. Moreover, the IC50 in the test with A2058 is greater than 50 µM.
In the case of `O=C(COc1ccc(/C=C2\SC(=O)N(Cc3cccc4cc5ccccc5nc34)C2=O)cc1)Nc1cccc(C(F)(F)F)c1` [8f·HCl, 2-(4-{[(5Z)-3-[(Acridin-4-yl)methyl]-2,4-dioxo-1,3-thiazolidin-5-ylidene]methyl}phenoxy)-N-[3-(trifluoromethyl)phenyl]acetamide hydrochloride], the IC50 in the test with Bj-5ta, in the test with A549, with Hep G2, in the test with HeLa, in the test with HCT116 and in the test with PATU was greater than 50 µM throughout. In the test on A2058, this compound came in with an IC50 greater than 50 µM.
With `COc1cc(/C=C2\SC(=O)N(Cc3cccc4cc5ccccc5nc34)C2=O)ccc1OCC(=O)Nc1ccccc1` [13a·HCl, 2-(4-{[(5Z)-3-[(Acridin-4-yl)methyl]-2,4-dioxo-1,3-thiazolidin-5-ylidene]methyl}-2-methoxyphenoxy)-N-phenylacetamide hydrochloride], the concentration for half-maximal inhibition (IC50) in the test with Bj-5ta, in the test with A549, with Hep G2, in the test with HeLa, in the test with HCT116 and in the test with PATU was greater than 50 µM in each case. This compound returned an IC50 in the test on A2058 greater than 50 µM.
Consider `COc1cc(NC(=O)COc2ccc(/C=C3\SC(=O)N(Cc4cccc5cc6ccccc6nc45)C3=O)cc2OC)cc(OC)c1` [13b·HCl, 2-(4-{[(5Z)-3-[(Acridin-4-yl)methyl]-2,4-dioxo-1,3-thiazolidin-5-ylidene]methyl}-2-methoxyphenoxy)-N-(3,5-dimethoxyphenyl)acetamide hydrochloride], for which the IC50 was greater than 50 µM in the test on Bj-5ta; greater than 50 µM in the test on A549; greater than 50 µM with Hep G2; 45.5 ± 2.9 µM in the test with HeLa; greater than 50 µM in the test with HCT116; greater than 50 µM in the test on PATU. In the test on A2058, this compound yielded an IC50 greater than 50 µM.
